Series [1] can be described thus: in vitro. The settings on record: mouse, microsomes.
Description: Half life in mouse liver microsomes at 50 uM measured for 60 mins in presence of NADP+
The conditions of series [2]: mouse, microsomes, 1 h, 50 µM.

This is an account of results in ChEMBL document CHEMBL5338730, “Metabolism-Guided Selective Androgen Receptor Antagonists: Design, Synthesis, and Biological Evaluation for Activity against Enzalutamide-Resistant Prostate Cancer” (J Med Chem, 2023).

Compound `C[C@](O)(CS(=O)(=O)c1ccc(F)cc1)C(=O)Nc1ccc(C#N)c(C(F)(F)F)c1` [(R)-BICALUTAMIDE] showed a half-life at 1 h, 50 µM in series [1] of 10 h. As to `C[C@](O)(COc1ccc(C#N)cc1)C(=O)Nc1ccc(C#N)c(C(F)(F)F)c1` [ENOBOSARM], the CLH in series [2] turned out to be 1400 µL/min/mg.
